Experimental data taken from patent US20200367493A1, “BIOCONTROL ENHANCERS” (YEDA RESEARCH AND DEVELOPMENT CO. LTD., priority 2016, published 2020).
Entries after “also recorded” stand apart in the source; their conditions may differ.

Legend:
B. subtilis 3610 = test: Pellicle assay (floating biofilm formation in MSgg medium); type: cell-based, Bacillus subtilis; conditions: for biofilm formation (promotion/induction/enhancement): B. subtilis 3610, 1 μM of the natural compound, compared with not treated; for pellicle formation (inhibition): B. subtilis, 1 μM
Source text: B. subtilis, NCBI 3610 (hereafter referred to as “3610”), forms robust and highly structured biofilms in liquid medium. When inoculated into a standing culture of minimal medium, 3610 initially grows planktonically as motile, single cells. The cells then migrate to the air-liquid interface, where they proliferate as long chains of non-motile cells. These chains are highly ordered in parallel patterns and are bound together tightly, presumably by an extracellular matrix (ECM), to form a floating biofilm (pellicle). Growth of the bundled chains continues, giving rise to larger biofilm structures that include the fruiting bodies. Thus, we consider pellicles as a highly robust setting for the study of B. subtilis biofilms
Two different assays were used to screen a natural compounds library (AnalytiCon Discovery GmbH Germany (http://www.ac-discovery.com/) for biofilm formation. A Petri Assay was used to observed changes in structure and size of biofilms, while a Pellicle Assay was used to study biofilm inhibitors and biofilm induction (FIG. 1).
The protocol for the pellicle essay comprised the following steps:
A 2× solution of rich, defined biofilm-inducing MSgg medium (Branda, S. S., Gonzalez-Pastor, J. E., Ben-Yehuda, S., Losick, R. & Kolter, R. Fruiting body formation by Bacillus subtilis. Proceedings of the National Academy of Sciences of the United States of America 98, 11621-11626, doi:10.1073/pnas.191384198 (2001)), without the calcium chloride and iron(III) chloride hexahydrate was prepared. After filter sterilization, the calcium chloride was added. The medium was ready to use directly or it could be stored at 4° C. in the dark.
A 1× dilution medium was prepared on the day of the experiment. The 2× MSgg medium was diluted to 1× with sterile distilled water (pellicles) or sterile 3% hot (80° C.) agar (biofilms) and iron(III) chloride hexahydrate added to a final concentration of 50 μM (pellicles) or […] (biofilms). Molecules for screening were then added.
Compared to the original MSgg recipe (Branda, S. S., et al. (2001) ibid), the medium used contained 50 μg/ml threonine and the iron concentration to grow biofilm colonies on solid MSgg medium was increased 2.5× to optimize the wrinkled colony morphology. After solidification of the agar, dry the solid MSgg plates in a biological hood for 30-45 min prior to the inoculation.
The next step was to streak out B. subtilis from a −80° C. stock (a LB culture of 10^9 cells/ml frozen in 20% glycerol) to isolate single colonies on a LB-1.5% agar plate with a sterile tip or applicator stick. Cultures were grown overnight at 30° C.
Following this, a single colony was picked from the LB-1.5% agar plate for growth in 3 ml LB broth at 37° C. for 4 hours in a shaking incubator (shaking speed 200 rpm) The LB broth was replaced with biofilm-inducing MSgg medium prior to inoculation by centrifuging 1 ml starter culture for 3 min at 6000 g, carefully removing the supernatant and re-suspending the pellet in 1 ml MSgg medium. The rest of the culture can be discharged.
During the growth of the starter culture, a 12-well cell-culture multidish plate containing 3 ml of MSgg medium without or with a concentration range of the small molecules (natural products to be tested) was prepared. To rule out edge effects, the location of the different concentrations was distributed across the multidish plate. Alternatively, use 24-well cell-culture multidish plates containing 1.5 ml of MSgg medium was used.
The wells of the 12-well cell-culture multidish plate were inoculated with […] of the washed starter culture (1:1000 dilution). In certain embodiments, a lower dilution ratio, i.e. 1:500 could be used. This decreases the development time of the pellicles.
Grow the pellicles at 23° C. was under static conditions for three days. The pellicles were no moved during this time, as it could affect the final surface morphology of the pellicle.
Pictures of the pellicles were taken with a high resolution camera. […]

sinI = sinI transcription, sinI promoter fused to luciferase reporter; type: cell-based, Bacillus subtilis; conditions: 1 μM; PsinI-luciferase, luminescence divided by OD600
Description: (§1) Planktonic growth, attachment to surfaces, induction of extracellular matrix genes tapA-sipW-tasA operon sinI regulator involved in biofilm formation, and biofilm development was measured and compared amongst the natural compounds identified by the screen. For the analysis for enhancement of biofilm formation and transcription of matrix genes 1 uM aqueous solutions comprising each natural compound were tested.
(§2) Gene expression: Gene expression was measure using reporter genes (luciferase or green fluorescent protein) Luminescence of a strains harboring sacA: PsinI-luciferase was measure in the presence or absence of 1 μM of the natural compounds presented in FIGS. 2A and 2B. Fluorescence of a strain harboring sacA::PtapA-gfp was measured in presence or absence of 1 μM of the natural compounds shown in FIGS. 2A and 2B. Results are a representative of six independent experiments; the SD represents an average of 5 wells.
(§3) The expression of SinI, the matrix regulator, was measured as was the expression of tapA-sipW-tasA operon, in the absence and presence of the natural compounds listed in FIG. 2B. Specifically, sinI transcription was monitored. SinI transcription is a direct readout for the activity of the genetic pathway resulting in matrix production and biofilm formation. sinI transcription in biofilm-inducing medium was monitored using the sinI promoter fused to luciferase.

tapA-sipW-tasA operon = test: tapA-sipW-tasA transcription, PtapA-gfp reporter; type: cell-based, Bacillus subtilis; conditions: B. subtilis; matrix genes (sinI, tapA reporters); 1 μM
Description: as §1, §2, §3

B. subtilis = test: Planktonic growth; type: cell-based, Bacillus subtilis; conditions: 1 μM
Description: as §1

P. sytingae pv tomato = test: Submerged biofilm formation, crystal violet staining of attached cells; type: cell-based
Source text: Similar to Example 1, a Pellicle Assay was used to study biofilm inhibitors (FIG. 1). Analysis of submerged biofilm formation by P. sytingae pv tomato included staining attached cells with crystal violet and quantified as known in the art (Mol Microbiology 28:449-461).

Compound	biofilm formation (promotion/induction/enhancement) (B. subtilis 3610)	transcription of sinI (sinI)	transcription expression of matrix genes (tapA-sipW-tasA operon)	pellicle formation (inhibition) (B. subtilis 3610)	effect on planktonic growth (B. subtilis)	attachment in the plant pathogen (inhibition) (P. sytingae pv tomato)
COc1cc(O)c2c(=O)c(O[C@@H]3O[C@H](CO)[C@@H](O)[C@H](O)[C@H]3O[C@@H]3O[C@H](CO)[C@@H](O)[C@H](O)[C@H]3O)c(-c3ccc(O)c(O)c3)oc2c1 [3-(((2S,3R,4S,5S,6R)-4,5-dihydroxy-6-(hydroxymethyl)-3-(((2S,3R,4S,5S,6R)-3,4,5-trihydroxy-6-(hydroxymethyl)tetrahydro-2H-pyran-2-yl)oxy)tetrahydro-2H-pyran-2-yl)oxy)-2-(3,4-dihydroxyphenyl)-5-hydroxy-7-methoxy-4H-chromen-4-one]	enhance biofilm formation; also recorded: promoted, induced, and enhanced	significantly enhanced	enhance transcription expression of matrix genes			
COc1cc2oc(-c3ccc(O)c(O)c3)c(OC)c(=O)c2c(O)c1OC [2-(3,4-dihydroxyphenyl)-5-hydroxy-3,6,7-trimethoxy-4H-chromen-4-one]	enhance biofilm formation; also recorded: promoted, induced, and enhanced	significantly enhanced	enhance transcription expression of matrix genes			
COc1cc(-c2cc(=O)c3c(O)c(OC)c(OC)c(O)c3o2)ccc1O [isothymonin, 5,8-dihydroxy-2-(4-hydroxy-3-methoxyphenyl)-6,7-dimethoxy-4H-chromen-4-one]	enhance biofilm formation; also recorded: promoted, induced, and enhanced	significantly enhanced	enhance transcription expression of matrix genes			
eupahakonenin B				blocked pellicle formation	inert to planktonic growth	
CCCCCc1cc(O)c(C/C=C(\C)CCC=C(C)C)c(O)c1 [(E)-2-(3,7-dimethylocta-2,6-dien-1-yl)-5-pentylbenzene-1,3-diol]				blocked pellicle formation; also recorded: mildly inhibited	inert to planktonic growth	strongly inhibited attachment
C=C[C@H]1[C@H](OC2OC(CO)C(O)C(O)C2O)OC=C(C(=O)OC)[C@H]1CCOC(=O)c1cc(O)c(O)c(O)c1 (stereo partly drawn) [cornuside, (2S,3R,4S)-methyl 2-((3,4,5-trihydroxy-6-(hydroxymethyl)tetrahydro-2H-pyran-2-yl)oxy)-4-(2-((3,4,5-trihydroxybenzoyl)oxy)ethyl)-3-vinyl-3,4-dihydro-2H-pyran-5-carboxylate]	enhance biofilm formation; also recorded: promoted, induced, and enhanced	significantly enhanced	enhance transcription expression of matrix genes			
